Assay [1] is described as follows: Antiproliferative activity against chinese hamster MTXRII-OuaR2-4 cells expressing human reduced folate carrier after 96 hrs by celltiter-blue cell viability assay. Particulars: Cricetulus griseus. A general note: Alamar Blue is a resazurin reagent that responds to reducing activity.
Assay [2] addresses T1, Trifunctional purine biosynthetic protein adenosine-3 (Mus musculus, UniProt Q64737).
T1 sequence (Q64737 whole entry): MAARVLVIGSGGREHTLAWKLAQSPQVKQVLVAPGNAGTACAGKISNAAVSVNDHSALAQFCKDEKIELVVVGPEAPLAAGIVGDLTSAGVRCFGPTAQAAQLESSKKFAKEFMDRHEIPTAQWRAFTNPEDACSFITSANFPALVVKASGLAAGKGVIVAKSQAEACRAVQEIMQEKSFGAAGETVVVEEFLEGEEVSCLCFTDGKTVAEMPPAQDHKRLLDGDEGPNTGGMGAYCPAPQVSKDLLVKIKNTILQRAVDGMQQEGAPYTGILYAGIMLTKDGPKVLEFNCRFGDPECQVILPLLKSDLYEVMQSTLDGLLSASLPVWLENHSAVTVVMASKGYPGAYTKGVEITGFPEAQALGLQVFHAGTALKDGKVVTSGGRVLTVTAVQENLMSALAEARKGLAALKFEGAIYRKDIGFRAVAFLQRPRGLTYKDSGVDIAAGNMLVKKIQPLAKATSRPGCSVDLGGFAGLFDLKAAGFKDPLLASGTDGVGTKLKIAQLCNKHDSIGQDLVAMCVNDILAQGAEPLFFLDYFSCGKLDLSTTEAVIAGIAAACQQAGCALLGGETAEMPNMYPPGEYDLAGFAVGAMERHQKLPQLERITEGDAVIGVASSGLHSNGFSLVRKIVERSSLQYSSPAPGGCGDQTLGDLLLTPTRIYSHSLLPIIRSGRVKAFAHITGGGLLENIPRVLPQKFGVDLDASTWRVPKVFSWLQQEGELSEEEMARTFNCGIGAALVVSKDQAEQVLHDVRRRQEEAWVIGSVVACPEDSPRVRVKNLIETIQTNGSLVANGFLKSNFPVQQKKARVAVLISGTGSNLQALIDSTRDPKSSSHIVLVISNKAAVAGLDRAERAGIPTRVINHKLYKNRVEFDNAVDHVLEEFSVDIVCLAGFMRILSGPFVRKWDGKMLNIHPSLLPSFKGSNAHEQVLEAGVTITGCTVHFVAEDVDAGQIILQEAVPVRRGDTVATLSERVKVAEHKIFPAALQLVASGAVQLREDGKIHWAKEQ
Put plainly: Inhibition of mouse recombinant GARFTase.

A short description of assay [3]: Antiproliferative activity against chinese hamster RT16 cells expressing human folate receptor alpha after 96 hrs by celltiter-blue cell viability assay in presence of folic acid. Particulars: Cricetulus griseus, RT16, 96 h.
A short description of assay [4]: Antiproliferative activity against chinese hamster MTXRII-OuaR2-4 cells expressing human proton-coupled folate transporter after 96 hrs by celltiter-blue cell viability assay. Particulars: Cricetulus griseus.
The nature of assay [5]: Antiproliferative activity against chinese hamster MTXRII-OuaR2-4 cells expressing empty pCDNA3.1 after 96 hrs by celltiter-blue cell viability assay. Particulars: Cricetulus griseus.
Assay [6] can be described thus: Antiproliferative activity against chinese hamster PC43-10 cells expressing human reduced folate carrier after 96 hrs by celltiter-blue cell viability assay. Particulars: Cricetulus griseus, PC43-10, 96 h.
Assay [7] can be described thus: Antiproliferative activity against chinese hamster D4 cells expressing human folate receptor beta after 96 hrs by celltiter-blue cell viability assay in presence of folic acid. Particulars: Cricetulus griseus, D4, 96 h.
The test system of assay [8] is IGROV-1. Put plainly: Antiproliferative activity against human IGROV1 cells expressing human reduced folate carrier/folate receptor alpha after 96 hrs by celltiter-blue cell viability assay in presence of folic acid. Particulars: IGROV-1, 96 h.
In assay [9] the target is Folate receptor beta (Homo sapiens) (UniProt P14207). As to the kind of experiment: Displacement of [3H]folic acid from human folate receptor beta in chinese hamster D4 cells assessed as relative binding affinity relative to folic acid. Type of assay: cell-based. For orientation: Displacement assays read how much labelled ligand stays bound in the presence of the test substance.

Assay [10] concerns KB. Put plainly: Antiproliferative activity against human KB cells expressing human reduced folate carrier/folate receptor alpha after 96 hrs by celltiter-blue cell viability assay in presence of folic acid.
Assay [11] concerns the target Folate receptor alpha (Homo sapiens) (UniProt P15328). As to the kind of experiment: Displacement of [3H]folic acid from human folate receptor alpha in chinese hamster RT16 cells assessed as relative binding affinity relative to folic acid. Type of assay: cell-based.
Assay [12] can be described thus: Antiproliferative activity against chinese hamster D4 cells expressing human folate receptor beta after 96 hrs by celltiter-blue cell viability assay. The conditions noted are these: Cricetulus griseus, D4, 96 h.
Assay [13] deals with IGROV-1. As to the kind of experiment: Antiproliferative activity against human IGROV1 cells expressing human reduced folate carrier/folate receptor alpha after 96 hrs by celltiter-blue cell viability assay. Particulars: IGROV-1, 96 h.
Assay [14] addresses T2, Trifunctional purine biosynthetic protein adenosine-3 (Homo sapiens, UniProt P22102).
T2 sequence (P22102 whole entry): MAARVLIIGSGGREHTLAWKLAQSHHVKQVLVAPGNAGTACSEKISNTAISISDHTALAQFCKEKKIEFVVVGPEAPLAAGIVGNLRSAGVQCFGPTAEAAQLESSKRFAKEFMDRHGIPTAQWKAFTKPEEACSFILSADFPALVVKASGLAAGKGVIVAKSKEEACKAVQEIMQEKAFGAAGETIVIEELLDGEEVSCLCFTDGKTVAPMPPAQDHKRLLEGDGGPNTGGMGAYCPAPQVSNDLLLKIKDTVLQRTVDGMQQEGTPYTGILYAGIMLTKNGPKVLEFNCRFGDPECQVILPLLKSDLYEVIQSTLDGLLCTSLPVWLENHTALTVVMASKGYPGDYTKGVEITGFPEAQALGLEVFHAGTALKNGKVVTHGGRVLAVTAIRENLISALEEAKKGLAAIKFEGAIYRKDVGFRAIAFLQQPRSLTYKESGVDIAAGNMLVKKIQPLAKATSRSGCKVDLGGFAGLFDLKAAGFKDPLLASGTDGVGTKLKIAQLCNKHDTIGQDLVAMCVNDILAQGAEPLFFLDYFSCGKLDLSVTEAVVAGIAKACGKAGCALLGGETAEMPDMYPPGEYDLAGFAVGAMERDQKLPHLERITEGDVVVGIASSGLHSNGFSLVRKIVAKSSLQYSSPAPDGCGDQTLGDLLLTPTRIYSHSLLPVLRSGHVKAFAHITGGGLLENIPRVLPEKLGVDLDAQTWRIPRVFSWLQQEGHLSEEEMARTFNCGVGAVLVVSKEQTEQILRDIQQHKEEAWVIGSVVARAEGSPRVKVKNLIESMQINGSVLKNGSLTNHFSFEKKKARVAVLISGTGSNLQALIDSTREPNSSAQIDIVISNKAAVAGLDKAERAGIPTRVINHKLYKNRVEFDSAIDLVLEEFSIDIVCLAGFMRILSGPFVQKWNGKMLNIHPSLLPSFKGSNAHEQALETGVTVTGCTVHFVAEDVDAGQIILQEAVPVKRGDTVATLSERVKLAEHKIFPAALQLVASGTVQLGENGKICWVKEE
As to the kind of experiment: Inhibition of GARFTase in human KB cells assessed as inhibition of incorporation of [14C]glycine into [14C]formyl GAR after 30 mins in presence of azaserine.

A short description of assay [15]: Antiproliferative activity against chinese hamster RT16 cells expressing human folate receptor alpha after 96 hrs by celltiter-blue cell viability assay. The conditions noted are these: Cricetulus griseus, RT16, 96 h.
For assay [16], the system named is KB. As to the kind of experiment: Antiproliferative activity against human KB cells expressing human reduced folate carrier/folate receptor alpha after 96 hrs by celltiter-blue cell viability assay.

Molecules are shown by their SMILES.

Folate receptor alpha (Homo sapiens), sequence (P15328 25-234 limits assumed): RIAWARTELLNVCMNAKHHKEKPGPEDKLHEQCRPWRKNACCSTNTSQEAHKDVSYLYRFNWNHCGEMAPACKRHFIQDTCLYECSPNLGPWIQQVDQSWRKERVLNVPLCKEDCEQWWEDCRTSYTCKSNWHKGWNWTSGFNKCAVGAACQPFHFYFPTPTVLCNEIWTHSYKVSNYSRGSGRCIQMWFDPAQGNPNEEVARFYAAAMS
Folate receptor beta (Homo sapiens), sequence (P14207 17-230 limits assumed): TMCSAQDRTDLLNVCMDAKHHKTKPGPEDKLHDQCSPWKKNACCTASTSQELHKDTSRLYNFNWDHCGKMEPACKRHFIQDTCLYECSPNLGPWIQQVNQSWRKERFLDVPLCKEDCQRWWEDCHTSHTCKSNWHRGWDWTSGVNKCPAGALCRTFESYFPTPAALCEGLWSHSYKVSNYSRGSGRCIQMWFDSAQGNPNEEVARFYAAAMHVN

One may read the IC50 as the concentration that gives 50% inhibition. On to `Nc1nc2sc(CCCc3ccc(C(=O)N[C@@H](CCC(=O)O)C(=O)O)cc3)cc2c(=O)[nH]1`, for which the IC50 in [1] is over 1 µM; in assay [2] it was 8.52 µM; in [3], over 1 µM; in assay [4] it was over 1 µM; in assay [5] it was over 1 µM; in [6], over 1 µM. For the same molecule, the IC50 in assay [7] is over 1 µM; with IGROV-1 [8] it was over 1 µM; with KB [10], over 1 µM; in assay [12], 0.112 µM. Moreover, the relative binding affinity (RBA) in assay [9] and in [11] was over 0.8 throughout.

Consider `Nc1nc2sc(CCCCCCc3ccc(C(=O)N[C@@H](CCC(=O)O)C(=O)O)cc3)cc2c(=O)[nH]1`, for which the half-inhibitory concentration (IC50) in [1] was over 1 µM; in the assay on IGROV-1 [13], 0.334 µM; in assay [3], over 1 µM; in assay [4], over 1 µM; in [5], over 1 µM; in [6] it was over 1 µM. In addition, the IC50 in assay [14] was 0.0266 µM; in assay [7], over 1 µM; with IGROV-1 [8], over 1 µM; with KB [10] it was over 1 µM; in assay [15], 0.108 µM; in [12] it was 0.364 µM. Further, the relative binding affinity (RBA) in assay [9] and in [11] was over 0.8 each time.

Consider `Nc1nc2sc(CCCCCCCCc3ccc(C(=O)N[C@@H](CCC(=O)O)C(=O)O)cc3)cc2c(=O)[nH]1`, for which the 50% inhibitory concentration (IC50) (in assay [1]; with IGROV-1 [13]; in [3]; in [4]; in assay [5]; with KB [16]) was over 1 µM in each case. For the same molecule, the half-maximal inhibitory concentration (IC50) (in assay [6]; in [7]; with IGROV-1 [8]; in the assay with KB [10]; in [15]; in assay [12]) was over 1 µM throughout. The relative binding affinity (RBA) in assay [9] and in [11] was over 0.8 throughout.

Regarding `Nc1nc2sc(CCc3ccc(C(=O)N[C@@H](CCC(=O)O)C(=O)O)cc3)cc2c(=O)[nH]1`, the half-inhibitory concentration (IC50) in assay [1] was over 1 µM; in assay [2], over 20 µM; in the assay with IGROV-1 [13], over 1 µM; in [3], over 1 µM; in assay [4], over 1 µM; in assay [5], over 1 µM. Besides, the 50% inhibitory concentration (IC50) was over 1 µM in the assay with KB [16]; over 1 µM in assay [6]; 0.0323 µM in assay [14]; over 1 µM in [7]; over 1 µM with IGROV-1 [8]; over 1 µM in the assay with KB [10]. Further, the 50% inhibitory concentration (IC50) in assay [15] and in assay [12] was over 1 µM in each case. The relative binding affinity (RBA) is under 0.01 in assay [9] and 0.25 in [11].

Regarding `Nc1nc2sc(CCCCCCCc3ccc(C(=O)N[C@@H](CCC(=O)O)C(=O)O)cc3)cc2c(=O)[nH]1`, the IC50 (in [1]; in the assay on IGROV-1 [13]; in assay [3]; in assay [4]; in assay [5]; with KB [16]) was over 1 µM each time. In addition, the concentration for half-maximal inhibition (IC50) (in assay [6]; in assay [7]; with IGROV-1 [8]; in the assay on KB [10]; in assay [15]; in assay [12]) was over 1 µM each time. The relative binding affinity (RBA) in assay [9] and in [11] was over 0.8 throughout.

With `Nc1nc2sc(CCCCc3ccc(C(=O)N[C@@H](CCC(=O)O)C(=O)O)cc3)cc2c(=O)[nH]1`, the IC50 in assay [1], in assay [3], in assay [4], in [5], in [6] and in assay [7] was over 1 µM throughout. Moreover, the IC50 in the assay on IGROV-1 [8] and with KB [10] was over 1 µM in each case. Moreover, the relative binding affinity (RBA) in assay [9] and in assay [11] was over 0.8 throughout.

With `Nc1nc2sc(CCCCCc3ccc(C(=O)N[C@@H](CCC(=O)O)C(=O)O)cc3)cc2c(=O)[nH]1`, the IC50 was over 1 µM in assay [1]; over 1 µM in assay [3]; over 1 µM in assay [4]; over 1 µM in assay [5]; 0.132 µM with KB [16]; over 1 µM in [6]. Also, the concentration for half-maximal inhibition (IC50) in [14] was 0.0236 µM; in assay [7], over 1 µM; in the assay on IGROV-1 [8] it was over 1 µM; in the assay with KB [10], over 1 µM. Moreover, the relative binding affinity (RBA) in assay [9] and in assay [11] was over 0.8 each time.

`CN(Cc1cnc2nc(N)nc(N)c2n1)c1ccc(C(=O)N[C@@H](CCC(=O)O)C(=O)O)cc1`: the relative binding affinity (RBA) in assay [11] was 0.8.
